Measurements published in patent US11021457B2, “Class of isoindolone-imide ring-1,3-dione-2-ene compounds, composition and use thereof” (WIGEN BIOMEDICINE TECHNOLOGY (SHANGHAI) CO., LTD., priority 2017, dated 2021).

system: A549; assay: Inhibition of tumor cell proliferation, CellTiter-Glo, A549; format: cell-based; settings: compound concentration 50 μM, 72 hours
Description: (§1) For various cell lines, the corresponding complete medium was used, and culture was carried out in an incubator at 37° C. with 5% CO2. The cells were counted, and inoculated into a 96-well plate at 2000-10000 cells/100 μl per well according to the cell volume and growth rate. The suspended cells were treated immediately, and the adherent cells were treated after adherence. The CellTiter-Glo method was used to detect the changes in cell viability 72 hours after the administration, and the cell survival rate at different concentrations was calculated by a formula: Survival rate (%)=(RLU of treatment well−RLU of blank well)/(RLU of control well−RLU of blank well)×100.
(§2) Method for expressing the inhibitory activity of the compounds against the proliferation of tumor cells: Evaluation was made based on the cell survival rate at a compound concentration of 50 μM. 60≤survival rate (%)<90 is considered to have low inhibitory activity against the proliferation of tumor cells (+); 30<survival rate (%)≤60 is considered to have moderate inhibitory activity against the proliferation of tumor cells (++); and survival rate (%)≤30 is considered to have high inhibitory activity against the proliferation of tumor cells (+++).

Compound	Inhibitory activity against proliferation (cell survival rate) A549
O=C1CCC(N2Cc3c(NC=C4C(=O)CC(c5ccc(O)cc5)CC4=O)cccc3C2=O)C(=O)N1 (stereo not drawn) [Compound 34]	+ (60≤survival rate (%)<90)
O=C1CCC(N2Cc3c(NC=C4C(=O)CC(c5ccccc5Cc5ccccc5)CC4=O)cccc3C2=O)C(=O)N1 (stereo not drawn) [Compound 35]	+++ (survival rate (%)≤30)
O=C1CCC(N2Cc3c(NC=C4C(=O)CC(c5cccs5)CC4=O)cccc3C2=O)C(=O)N1 (stereo not drawn) [Compound 36]	+ (60≤survival rate (%)<90)
O=C1CCC(N2Cc3c(NC=C4C(=O)CC(c5csc6ccccc56)CC4=O)cccc3C2=O)C(=O)N1 (stereo not drawn) [Compound 37]	+ (60≤survival rate (%)<90)
COc1ccc(C2CC(=O)C(=CNc3cccc4c3CN(C3CCC(=O)NC3=O)C4=O)C(=O)C2)c(OC)c1 (stereo not drawn) [Compound 40]	+++ (survival rate (%)≤30)
Cc1cc(C(=O)Nc2cccc3c2CN(C2CCC(=O)NC2=O)C3=O)ccc1NC=C1C(=O)CC(c2ccccc2)CC1=O (stereo not drawn) [Compound 51]	+ (60≤survival rate (%)<90)
O=C1CCC(N2Cc3c(NC(=O)c4ccccc4NC=C4C(=O)CC(c5ccccc5)CC4=O)cccc3C2=O)C(=O)N1 (stereo not drawn) [Compound 52]	++ (30<survival rate (%)≤60)
O=C1CCC(N2Cc3c(NC(=O)c4cccc(NC=C5C(=O)CC(c6ccccc6)CC5=O)c4)cccc3C2=O)C(=O)N1 (stereo not drawn) [Compound 53]	+++ (survival rate (%)≤30)

system: SU-DHL6; assay: Inhibition of tumor cell proliferation, CellTiter-Glo, SU-DHL6; format: cell-based; settings: compound concentration 50 μM, 72 hours
Description: as §1, §2

Compound	Inhibitory activity against proliferation (cell survival rate) SU-DHL6
O=C1CCC(N2Cc3c(NC=C4C(=O)CC(c5ccc(O)cc5)CC4=O)cccc3C2=O)C(=O)N1 (stereo not drawn) [Compound 34]	+++ (survival rate (%)≤30)
O=C1CCC(N2Cc3c(NC=C4C(=O)CC(c5ccccc5Cc5ccccc5)CC4=O)cccc3C2=O)C(=O)N1 (stereo not drawn) [Compound 35]	+++ (survival rate (%)≤30)
O=C1CCC(N2Cc3c(NC=C4C(=O)CC(c5cccs5)CC4=O)cccc3C2=O)C(=O)N1 (stereo not drawn) [Compound 36]	+++ (survival rate (%)≤30)
O=C1CCC(N2Cc3c(NC=C4C(=O)CC(c5csc6ccccc56)CC4=O)cccc3C2=O)C(=O)N1 (stereo not drawn) [Compound 37]	+++ (survival rate (%)≤30)
COc1ccc(C2CC(=O)C(=CNc3cccc4c3CN(C3CCC(=O)NC3=O)C4=O)C(=O)C2)c(OC)c1 (stereo not drawn) [Compound 40]	+ (60≤survival rate (%)<90)
Cc1cc(C(=O)Nc2cccc3c2CN(C2CCC(=O)NC2=O)C3=O)ccc1NC=C1C(=O)CC(c2ccccc2)CC1=O (stereo not drawn) [Compound 51]	+ (60≤survival rate (%)<90)
O=C1CCC(N2Cc3c(NC(=O)c4ccccc4NC=C4C(=O)CC(c5ccccc5)CC4=O)cccc3C2=O)C(=O)N1 (stereo not drawn) [Compound 52]	+ (60≤survival rate (%)<90)
O=C1CCC(N2Cc3c(NC(=O)c4cccc(NC=C5C(=O)CC(c6ccccc6)CC5=O)c4)cccc3C2=O)C(=O)N1 (stereo not drawn) [Compound 53]	+++ (survival rate (%)≤30)

system: MDA-MB-453; assay: Inhibition of tumor cell proliferation, CellTiter-Glo, MDA-MB-453; format: cell-based; settings: compound concentration 50 μM, 72 hours
Description: as §1, §2

Compound	Inhibitory activity against proliferation (cell survival rate) MDA-MB-453
O=C1CCC(N2Cc3c(NC=C4C(=O)CC(c5ccc(O)cc5)CC4=O)cccc3C2=O)C(=O)N1 (stereo not drawn) [Compound 34]	+++ (survival rate (%)≤30)
O=C1CCC(N2Cc3c(NC=C4C(=O)CC(c5ccccc5Cc5ccccc5)CC4=O)cccc3C2=O)C(=O)N1 (stereo not drawn) [Compound 35]	++ (30<survival rate (%)≤60)
O=C1CCC(N2Cc3c(NC=C4C(=O)CC(c5cccs5)CC4=O)cccc3C2=O)C(=O)N1 (stereo not drawn) [Compound 36]	++ (30<survival rate (%)≤60)
O=C1CCC(N2Cc3c(NC=C4C(=O)CC(c5csc6ccccc56)CC4=O)cccc3C2=O)C(=O)N1 (stereo not drawn) [Compound 37]	+++ (survival rate (%)≤30)
COc1ccc(C2CC(=O)C(=CNc3cccc4c3CN(C3CCC(=O)NC3=O)C4=O)C(=O)C2)c(OC)c1 (stereo not drawn) [Compound 40]	+ (60≤survival rate (%)<90)
Cc1cc(C(=O)Nc2cccc3c2CN(C2CCC(=O)NC2=O)C3=O)ccc1NC=C1C(=O)CC(c2ccccc2)CC1=O (stereo not drawn) [Compound 51]	+ (60≤survival rate (%)<90)
O=C1CCC(N2Cc3c(NC(=O)c4ccccc4NC=C4C(=O)CC(c5ccccc5)CC4=O)cccc3C2=O)C(=O)N1 (stereo not drawn) [Compound 52]	++ (30<survival rate (%)≤60)
O=C1CCC(N2Cc3c(NC(=O)c4cccc(NC=C5C(=O)CC(c6ccccc6)CC5=O)c4)cccc3C2=O)C(=O)N1 (stereo not drawn) [Compound 53]	++ (30<survival rate (%)≤60)

system: RPMI-8226; assay: Inhibition of tumor cell proliferation, CellTiter-Glo, RPMI-8226; format: cell-based; settings: compound concentration 50 μM, 72 hours
Description: as §1, §2

Compound	Inhibitory activity against proliferation (cell survival rate) RPMI-8226
O=C1CCC(N2Cc3c(NC=C4C(=O)CC(c5ccc(O)cc5)CC4=O)cccc3C2=O)C(=O)N1 (stereo not drawn) [Compound 34]	++ (30<survival rate (%)≤60)
O=C1CCC(N2Cc3c(NC=C4C(=O)CC(c5ccccc5Cc5ccccc5)CC4=O)cccc3C2=O)C(=O)N1 (stereo not drawn) [Compound 35]	+++ (survival rate (%)≤30)
O=C1CCC(N2Cc3c(NC=C4C(=O)CC(c5cccs5)CC4=O)cccc3C2=O)C(=O)N1 (stereo not drawn) [Compound 36]	+ (60≤survival rate (%)<90)
O=C1CCC(N2Cc3c(NC=C4C(=O)CC(c5csc6ccccc56)CC4=O)cccc3C2=O)C(=O)N1 (stereo not drawn) [Compound 37]	+ (60≤survival rate (%)<90)
COc1ccc(C2CC(=O)C(=CNc3cccc4c3CN(C3CCC(=O)NC3=O)C4=O)C(=O)C2)c(OC)c1 (stereo not drawn) [Compound 40]	+ (60≤survival rate (%)<90)
Cc1cc(C(=O)Nc2cccc3c2CN(C2CCC(=O)NC2=O)C3=O)ccc1NC=C1C(=O)CC(c2ccccc2)CC1=O (stereo not drawn) [Compound 51]	+++ (survival rate (%)≤30)
O=C1CCC(N2Cc3c(NC(=O)c4ccccc4NC=C4C(=O)CC(c5ccccc5)CC4=O)cccc3C2=O)C(=O)N1 (stereo not drawn) [Compound 52]	+++ (survival rate (%)≤30)
O=C1CCC(N2Cc3c(NC(=O)c4cccc(NC=C5C(=O)CC(c6ccccc6)CC5=O)c4)cccc3C2=O)C(=O)N1 (stereo not drawn) [Compound 53]	+++ (survival rate (%)≤30)

system: K562; assay: Inhibition of tumor cell proliferation, CellTiter-Glo, K562; format: cell-based; settings: compound concentration 50 μM, 72 hours
Description: as §1, §2

Compound	Inhibitory activity against proliferation (cell survival rate) K562
O=C1CCC(N2Cc3c(NC=C4C(=O)CC(c5ccc(O)cc5)CC4=O)cccc3C2=O)C(=O)N1 (stereo not drawn) [Compound 34]	++ (30<survival rate (%)≤60)
O=C1CCC(N2Cc3c(NC=C4C(=O)CC(c5ccccc5Cc5ccccc5)CC4=O)cccc3C2=O)C(=O)N1 (stereo not drawn) [Compound 35]	+++ (survival rate (%)≤30)
O=C1CCC(N2Cc3c(NC=C4C(=O)CC(c5cccs5)CC4=O)cccc3C2=O)C(=O)N1 (stereo not drawn) [Compound 36]	+ (60≤survival rate (%)<90)
O=C1CCC(N2Cc3c(NC=C4C(=O)CC(c5csc6ccccc56)CC4=O)cccc3C2=O)C(=O)N1 (stereo not drawn) [Compound 37]	+ (60≤survival rate (%)<90)
COc1ccc(C2CC(=O)C(=CNc3cccc4c3CN(C3CCC(=O)NC3=O)C4=O)C(=O)C2)c(OC)c1 (stereo not drawn) [Compound 40]	+++ (survival rate (%)≤30)
Cc1cc(C(=O)Nc2cccc3c2CN(C2CCC(=O)NC2=O)C3=O)ccc1NC=C1C(=O)CC(c2ccccc2)CC1=O (stereo not drawn) [Compound 51]	+ (60≤survival rate (%)<90)
O=C1CCC(N2Cc3c(NC(=O)c4ccccc4NC=C4C(=O)CC(c5ccccc5)CC4=O)cccc3C2=O)C(=O)N1 (stereo not drawn) [Compound 52]	+++ (survival rate (%)≤30)
O=C1CCC(N2Cc3c(NC(=O)c4cccc(NC=C5C(=O)CC(c6ccccc6)CC5=O)c4)cccc3C2=O)C(=O)N1 (stereo not drawn) [Compound 53]	+++ (survival rate (%)≤30)

system: BxPC-3; assay: Inhibition of tumor cell proliferation, CellTiter-Glo, BxPC-3; format: cell-based; settings: compound concentration 50 μM, 72 hours
Description: as §1, §2

Compound	Inhibitory activity against proliferation (cell survival rate) BxPC-3
O=C1CCC(N2Cc3c(NC=C4C(=O)CC(c5ccc(O)cc5)CC4=O)cccc3C2=O)C(=O)N1 (stereo not drawn) [Compound 34]	+ (60≤survival rate (%)<90)
O=C1CCC(N2Cc3c(NC=C4C(=O)CC(c5ccccc5Cc5ccccc5)CC4=O)cccc3C2=O)C(=O)N1 (stereo not drawn) [Compound 35]	++ (30<survival rate (%)≤60)
O=C1CCC(N2Cc3c(NC=C4C(=O)CC(c5cccs5)CC4=O)cccc3C2=O)C(=O)N1 (stereo not drawn) [Compound 36]	+ (60≤survival rate (%)<90)
O=C1CCC(N2Cc3c(NC=C4C(=O)CC(c5csc6ccccc56)CC4=O)cccc3C2=O)C(=O)N1 (stereo not drawn) [Compound 37]	+ (60≤survival rate (%)<90)
COc1ccc(C2CC(=O)C(=CNc3cccc4c3CN(C3CCC(=O)NC3=O)C4=O)C(=O)C2)c(OC)c1 (stereo not drawn) [Compound 40]	++ (30<survival rate (%)≤60)
Cc1cc(C(=O)Nc2cccc3c2CN(C2CCC(=O)NC2=O)C3=O)ccc1NC=C1C(=O)CC(c2ccccc2)CC1=O (stereo not drawn) [Compound 51]	+ (60≤survival rate (%)<90)
O=C1CCC(N2Cc3c(NC(=O)c4ccccc4NC=C4C(=O)CC(c5ccccc5)CC4=O)cccc3C2=O)C(=O)N1 (stereo not drawn) [Compound 52]	+ (60≤survival rate (%)<90)
O=C1CCC(N2Cc3c(NC(=O)c4cccc(NC=C5C(=O)CC(c6ccccc6)CC5=O)c4)cccc3C2=O)C(=O)N1 (stereo not drawn) [Compound 53]	+ (60≤survival rate (%)<90)
